ChEMBL document CHEMBL1201862, “PubChem BioAssay data set” (2004)
The source made the active and inactive calls.

What was measured:
[1] = molecular target: Transitional endoplasmic reticulum ATPase (Homo sapiens, UniProt P55072, C522A); experiment: Luminescence counterscreen assay for p97 inhibitors: dose response biochemical high throughput screening assay to identify inhibitors of the C522A mutant p97 ATPase: synthesized compounds. [Related pubchem assays: 1481, 1517, 1551 ]
[2] = molecular target: Transitional endoplasmic reticulum ATPase (Homo sapiens, UniProt P55072); experiment: Luminescence dose response biochemical high throughput screening assay for inhibitors of the p97 ATPase: synthesized compounds. [Related pubchem assays: 1481, 1517 ]
[3] = M. tuberculosis H37Rv growth inhibitors, H37Rv strain (AID 1626); format: functional
Cytochrome P450 2C9 = Cytochrome P450 2C9 (Homo sapiens, UniProt P11712)
Leucine aminopeptidase = molecular target: T1, Leucine aminopeptidase (Plasmodium falciparum 3D7, UniProt Q8IL11); experiment: P. falciparum M17LAP inhibitors, primary screen, biochemical, fluorogenic H-Leu-NHMec substrate, 1536-well (AID 1619); format: functional
T1 sequence (Q8IL11 whole entry): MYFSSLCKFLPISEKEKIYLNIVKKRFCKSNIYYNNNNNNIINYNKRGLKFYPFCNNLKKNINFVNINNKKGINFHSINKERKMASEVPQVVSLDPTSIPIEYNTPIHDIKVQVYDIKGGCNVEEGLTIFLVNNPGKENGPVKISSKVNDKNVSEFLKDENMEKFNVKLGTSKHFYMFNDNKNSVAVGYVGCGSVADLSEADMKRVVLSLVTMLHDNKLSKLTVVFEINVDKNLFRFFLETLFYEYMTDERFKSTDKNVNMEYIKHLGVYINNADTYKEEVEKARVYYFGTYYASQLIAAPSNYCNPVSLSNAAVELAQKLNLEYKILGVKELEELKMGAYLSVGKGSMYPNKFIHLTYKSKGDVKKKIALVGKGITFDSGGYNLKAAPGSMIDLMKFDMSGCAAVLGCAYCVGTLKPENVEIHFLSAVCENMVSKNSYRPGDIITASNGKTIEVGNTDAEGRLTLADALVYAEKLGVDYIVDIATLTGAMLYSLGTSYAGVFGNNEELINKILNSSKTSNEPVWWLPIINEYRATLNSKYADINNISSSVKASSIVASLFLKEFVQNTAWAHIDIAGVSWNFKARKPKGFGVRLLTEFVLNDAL

Procathepsin L = Procathepsin L (Homo sapiens, UniProt P07711); experiment: cathepsin L inhibitors, dose response, counter-screen for M1/M17 aminopeptidase inhibitor project, biochemical, QFRET, 1536-well (AID 2214)
Aspartyl aminopeptidase = Aspartyl aminopeptidase (Plasmodium falciparum 3D7, UniProt Q8I2J3); experiment: Counterscreen for inhibitors of M1 and M17 aminopeptidases: QFRET-based biochemical high throughput dose response assay for inhibitors of the Plasmodium falciparum M18 Aspartyl Aminopeptidase (PFM18AAP). [Related PubChem assays: 1619 (Screening assay (M17LAP inhibitors).), 1445 (Screening assay (M1AAP inhibitors).)]
Large T antigen = Large T antigen (Simian virus 40, UniProt P03070); format: functional, Betapolyomavirus macacae;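 further: Confirmatory-stage PubChem screen for compounds that inhibit SV40 T antigen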
[4] = cytotoxicity in HEK-293T cells, dose response, cytotoxicity control for TCR NF-kB inhibitor project, luminescence, T-cell screen hits (AID 489026); format: functional, cell-based;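 further: cells exposed to compound about 14 hours before the viability readout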
[5] = cytotoxicity toward DRD oncogenic fibroblasts, dose response, cell-based, non-viral oncogenic, luminescence (AID 1934); format: functional; details: Homo sapiens
BJ [6] = experiment: cytotoxicity toward BJ-TERT-LT-ST fibroblasts, dose response, cell-based, RAS-independent, luminescence (AID 1935); format: functional; details: Homo sapiens;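 further: BJ fibroblasts immortalized with TERT plus LT and ST oncogenes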
BJ [7] = experiment: cytotoxicity toward BJ-TERT fibroblasts, dose response, cell-based, RAS-independent, luminescence (AID 1933); format: functional; details: Homo sapiens
BJ [8] = experiment: cells; format: functional, cell-based; details: Homo sapiens
[9] = Luminescence-based dose response cell-based high throughput screening assay for cytotoxic compounds using the IEC-6 intestinal epithelial cell line. [Related pubchem assays: 1858 (Summary AID.), 1825 (Counterscreen.), 1907 (Confirmation screen.)]; format: functional
[10] = molecular target: G-protein coupled receptor 55 (Homo sapiens, UniProt Q9Y2T6); experiment: GPR55 agonists via beta-arrestin recruitment, primary screen, imaging, U2OS cells, beta-arrestin-GFP redistribution (AID 1961); format: functional
Vero = experiment: host cell cytotoxicity of antiviral hits, dose response, cytotoxicity control for West Nile virus antiviral project, secondary assay (AID 1650); format: functional; details: Chlorocebus sabaeus
[11] = cytotoxicity toward NIH3T3 fibroblasts, dose response, counter-screen, cell-based, ATP luminescence, mouse fibroblasts (AID 2010); format: functional;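 further: cells exposed to compound for about 90 hours before reading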
[12] = inhibitors of intracellular T. cruzi replication, confirmation, NIH3T3 host cells, beta-gal luminescence (AID 2044); format: functional, cell-based;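 further: intracellular parasites grown in NIH/3T3 mouse fibroblasts as host cells; luminescent beta-galactosidase reporter signal from transgenic T. cruzi replicating inside host cells; inhibitors lower the luminescence signal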
[13] = molecular target: Heat shock protein HSP 90-alpha (Homo sapiens, UniProt P07900); format: functional, organism-based
[14] = molecular target: T2, Small ubiquitin-related modifier 1 (Homo sapiens, UniProt P63165); experiment: inhibitors of SUMO1 peptide binding, dose response, biochemical, fluorescence polarization, uHTS hits (AID 624382); format: functional; details: read-out: IC50_Mean
Genome polyprotein [15] = molecular target: T3, Genome polyprotein (Hepatitis C virus, UniProt Q2Q167); experiment: HCV core protein dimerization inhibitors, dose response, biochemical, TR-FRET (AID 2159); design: species or system Hepacivirus hominis;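 further: blocks dimerization of HCV core protein measured by TR-FRET between tagged core106 pairs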
Albumin = Albumin (Bos taurus, UniProt P02769); experiment: Counterscreen for inhibitors of T-cell receptor (TCR)-CD3 interaction: Fluorescence-based biochemical high throughput dose response assay to identify inhibitors of T-cell receptor (TCR)-CD3 interaction using a TAMRA-labeled BSA probe.; format: functional
Genome polyprotein [16] = molecular target: T3, Genome polyprotein; experiment: Late stage assay provider counterscreen results for the probe development effort to identify inhibitors of Hepatitis C Virus (HCV) core protein dimerization: Luminescence-based biochemical AlphaScreen assay to identify inhibitors of HCV core dimerization.; format: functional, Hepacivirus hominis
Bcl-2-like protein 1 = Bcl-2-like protein 1 (Homo sapiens, UniProt Q07817); experiment: BCL-XL inhibitors, dose response, selectivity assay for MCL1 inhibitor project, biochemical, fluorescence polarization, 1536-well (AID 2218)
[17] = molecular target: Induced myeloid leukemia cell differentiation protein Mcl-1 (Homo sapiens, UniProt Q07820); experiment: MCL1-BIM BH3 interaction inhibitors, dose response, biochemical, fluorescence polarization, BIM-BH3 peptide, 1536-well (AID 2217)
[18] = molecular target: T2, Small ubiquitin-related modifier 1; experiment: inhibitors of SUMO1 partner interactions, dose response, biochemical, FRET (AID 624383); format: functional; details: read-out: IC50_Mean
[19] = molecular target: T4, RNA-binding protein pos-1 (Caenorhabditis elegans, UniProt G5EF15); experiment: inhibitors of POS-1/mex-3 RNA binding, dose response, biochemical, fluorescence polarization (AID 1964);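 further: purified POS-1 fused to maltose binding protein made in E. coli; potency of compounds blocking POS-1 binding to fluorescent RNA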
T4 sequence (G5EF15 whole entry): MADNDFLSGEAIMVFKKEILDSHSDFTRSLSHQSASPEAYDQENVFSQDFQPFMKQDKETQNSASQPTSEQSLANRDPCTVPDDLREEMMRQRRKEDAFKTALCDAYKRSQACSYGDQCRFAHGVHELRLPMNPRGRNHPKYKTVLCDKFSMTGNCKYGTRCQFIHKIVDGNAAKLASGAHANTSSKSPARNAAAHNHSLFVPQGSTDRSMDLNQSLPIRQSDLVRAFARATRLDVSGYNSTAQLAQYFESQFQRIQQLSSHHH

[20] = molecular target: T5, Heat shock factor protein 1 (Mus musculus, UniProt P38532); experiment: HSF1 potentiators in luciferase reporter cells, confirmation, cell-based, NIH3T3, luminescence, dose retest (AID 435004); format: functional;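 further: stress induced by proteasome inhibitor MG132 added 30 min after compound; luciferase reporter driven by HSF1 response element in NIH3T3 cells; actives raise luminescence as potentiators of the MG132 stress response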
T5 sequence (P38532 whole entry): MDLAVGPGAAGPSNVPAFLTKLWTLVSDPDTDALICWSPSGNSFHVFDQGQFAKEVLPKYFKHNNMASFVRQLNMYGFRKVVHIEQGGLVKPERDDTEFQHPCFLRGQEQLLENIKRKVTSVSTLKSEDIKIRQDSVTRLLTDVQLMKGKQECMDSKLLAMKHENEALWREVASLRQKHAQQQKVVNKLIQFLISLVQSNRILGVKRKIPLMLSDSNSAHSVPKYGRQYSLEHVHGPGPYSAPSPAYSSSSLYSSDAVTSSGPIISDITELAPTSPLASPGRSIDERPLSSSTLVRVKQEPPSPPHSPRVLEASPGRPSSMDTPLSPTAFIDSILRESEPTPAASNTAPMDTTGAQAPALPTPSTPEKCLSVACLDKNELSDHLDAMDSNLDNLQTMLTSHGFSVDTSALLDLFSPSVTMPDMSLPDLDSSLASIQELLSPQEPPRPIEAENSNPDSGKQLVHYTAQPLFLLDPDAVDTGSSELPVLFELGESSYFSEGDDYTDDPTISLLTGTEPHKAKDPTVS

14-3-3 protein gamma = 14-3-3 protein gamma (Homo sapiens, UniProt P61981); experiment: modulators of 14-3-3 gamma client binding – dose response (AID 711); format: functional
[21] = molecular target: Glucose-6-phosphate 1-dehydrogenase (Homo sapiens, UniProt P11413); experiment: human G6PD enzyme inhibitors, dose response, selectivity assay for P. falciparum G6PD inhibitor project, biochemical, fluorescence (AID 504792); format: functional
[22] = molecular target: T6, Zinc finger protein mex-5 (Caenorhabditis elegans, UniProt Q9XUB2); experiment: MEX-5/TCR-2 RNA interaction inhibitors, dose response, biochemical, C. elegans, fluorescence polarization (AID 1960)
T6 sequence (Q9XUB2 whole entry): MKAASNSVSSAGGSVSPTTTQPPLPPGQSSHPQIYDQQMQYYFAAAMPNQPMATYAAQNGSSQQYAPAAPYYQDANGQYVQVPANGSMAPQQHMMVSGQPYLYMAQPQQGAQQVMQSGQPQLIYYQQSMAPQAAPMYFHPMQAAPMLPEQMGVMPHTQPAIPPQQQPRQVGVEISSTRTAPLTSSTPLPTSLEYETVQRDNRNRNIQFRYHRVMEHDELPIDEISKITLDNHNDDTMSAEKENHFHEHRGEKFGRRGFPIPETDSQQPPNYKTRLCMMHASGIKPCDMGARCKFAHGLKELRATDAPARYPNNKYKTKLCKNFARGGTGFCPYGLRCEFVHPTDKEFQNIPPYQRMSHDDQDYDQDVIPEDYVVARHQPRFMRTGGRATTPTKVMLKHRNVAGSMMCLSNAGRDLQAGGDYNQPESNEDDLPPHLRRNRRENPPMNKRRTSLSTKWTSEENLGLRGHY

[23] = cytotoxicity in HPDE-C7 cells, cell-based, fluorescence, HTS (AID 430); format: functional; details: Homo sapiens
Estrogen receptor = molecular target: T7, Estrogen receptor (Homo sapiens, UniProt P03372);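 further: potency for inhibiting coactivator peptide recruitment to the receptor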
T7 sequence (P03372 whole entry): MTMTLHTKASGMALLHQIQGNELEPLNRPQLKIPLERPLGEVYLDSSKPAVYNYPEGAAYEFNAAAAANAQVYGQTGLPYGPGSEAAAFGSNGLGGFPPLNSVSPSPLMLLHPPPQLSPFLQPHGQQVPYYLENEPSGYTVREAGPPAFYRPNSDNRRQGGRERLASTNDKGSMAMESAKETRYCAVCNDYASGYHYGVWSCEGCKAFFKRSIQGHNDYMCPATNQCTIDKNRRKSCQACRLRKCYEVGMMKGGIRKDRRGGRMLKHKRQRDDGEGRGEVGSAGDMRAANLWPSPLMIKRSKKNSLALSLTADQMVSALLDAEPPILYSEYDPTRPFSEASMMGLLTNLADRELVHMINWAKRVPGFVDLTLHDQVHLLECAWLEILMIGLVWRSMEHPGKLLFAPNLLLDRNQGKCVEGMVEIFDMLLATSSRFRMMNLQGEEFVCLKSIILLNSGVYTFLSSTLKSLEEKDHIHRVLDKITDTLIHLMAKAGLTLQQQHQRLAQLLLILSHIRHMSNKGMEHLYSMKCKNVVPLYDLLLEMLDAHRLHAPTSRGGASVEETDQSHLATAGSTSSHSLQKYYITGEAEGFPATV

[24] = cytotoxicity in KRAS-transformed pancreatic duct cells, primary screen, cell-based, fluorescence, HTS (AID 431); format: functional; details: Homo sapiens;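 further: cell line used: HPDE-C7K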

T2 sequence (P63165 whole entry): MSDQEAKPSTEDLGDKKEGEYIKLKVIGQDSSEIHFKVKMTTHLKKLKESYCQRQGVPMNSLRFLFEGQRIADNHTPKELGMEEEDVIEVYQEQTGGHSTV
T3 sequence (Q2Q167 whole entry): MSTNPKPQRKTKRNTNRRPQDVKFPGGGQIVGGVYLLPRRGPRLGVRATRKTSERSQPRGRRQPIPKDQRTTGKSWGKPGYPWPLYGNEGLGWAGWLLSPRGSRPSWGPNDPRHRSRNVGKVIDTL
Sequence of Large T antigen (P03070 whole entry): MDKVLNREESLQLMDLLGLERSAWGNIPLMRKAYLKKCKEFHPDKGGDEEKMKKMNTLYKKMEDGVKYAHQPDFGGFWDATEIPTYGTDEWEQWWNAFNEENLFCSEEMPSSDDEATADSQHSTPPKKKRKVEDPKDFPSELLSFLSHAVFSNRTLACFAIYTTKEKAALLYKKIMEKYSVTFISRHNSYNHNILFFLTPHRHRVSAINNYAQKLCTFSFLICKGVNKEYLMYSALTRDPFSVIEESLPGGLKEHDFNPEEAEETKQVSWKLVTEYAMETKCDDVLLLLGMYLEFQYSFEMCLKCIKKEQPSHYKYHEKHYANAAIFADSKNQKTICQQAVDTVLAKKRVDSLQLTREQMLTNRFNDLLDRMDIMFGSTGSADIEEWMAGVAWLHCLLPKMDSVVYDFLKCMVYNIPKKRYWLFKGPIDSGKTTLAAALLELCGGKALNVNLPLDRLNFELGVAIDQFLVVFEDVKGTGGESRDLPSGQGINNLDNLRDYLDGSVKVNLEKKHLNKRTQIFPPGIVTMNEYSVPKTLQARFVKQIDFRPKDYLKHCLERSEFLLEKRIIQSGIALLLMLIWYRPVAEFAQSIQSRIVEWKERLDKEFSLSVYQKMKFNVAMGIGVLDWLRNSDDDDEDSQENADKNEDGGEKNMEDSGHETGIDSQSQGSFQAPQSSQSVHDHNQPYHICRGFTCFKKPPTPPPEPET
Sequence of Cytochrome P450 2C9 (P11712 whole entry): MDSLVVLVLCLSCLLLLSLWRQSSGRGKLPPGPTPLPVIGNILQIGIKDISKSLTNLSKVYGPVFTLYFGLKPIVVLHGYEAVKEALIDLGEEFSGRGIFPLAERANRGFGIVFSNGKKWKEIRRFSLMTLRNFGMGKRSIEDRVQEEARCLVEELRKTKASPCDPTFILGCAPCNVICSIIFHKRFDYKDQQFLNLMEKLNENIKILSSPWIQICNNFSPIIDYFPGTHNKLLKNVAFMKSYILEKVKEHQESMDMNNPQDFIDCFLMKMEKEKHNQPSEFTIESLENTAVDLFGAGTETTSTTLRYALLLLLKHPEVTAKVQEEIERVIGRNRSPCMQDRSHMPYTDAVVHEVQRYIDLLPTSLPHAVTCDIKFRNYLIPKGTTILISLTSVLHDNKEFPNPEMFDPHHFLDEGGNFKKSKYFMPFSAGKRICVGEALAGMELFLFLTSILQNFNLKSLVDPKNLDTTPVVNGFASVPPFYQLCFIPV
Sequence of Bcl-2-like protein 1 (Q07817 whole entry): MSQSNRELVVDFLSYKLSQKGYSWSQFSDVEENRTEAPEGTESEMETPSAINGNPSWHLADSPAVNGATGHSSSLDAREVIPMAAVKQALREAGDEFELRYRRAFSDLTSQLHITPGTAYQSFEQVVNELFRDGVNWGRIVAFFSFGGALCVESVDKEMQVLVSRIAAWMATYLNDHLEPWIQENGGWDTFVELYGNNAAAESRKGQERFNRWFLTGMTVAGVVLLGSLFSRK
Sequence of G-protein coupled receptor 55 (Q9Y2T6 whole entry): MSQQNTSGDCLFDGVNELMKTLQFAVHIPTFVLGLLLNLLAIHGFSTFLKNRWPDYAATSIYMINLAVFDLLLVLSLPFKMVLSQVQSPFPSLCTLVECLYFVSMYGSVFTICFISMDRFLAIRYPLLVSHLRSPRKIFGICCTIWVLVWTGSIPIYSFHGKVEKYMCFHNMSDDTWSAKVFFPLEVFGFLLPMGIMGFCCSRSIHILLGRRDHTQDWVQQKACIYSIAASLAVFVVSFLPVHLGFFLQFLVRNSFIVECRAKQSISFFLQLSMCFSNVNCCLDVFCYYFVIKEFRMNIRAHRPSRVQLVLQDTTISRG
Sequence of Albumin (P02769 whole entry): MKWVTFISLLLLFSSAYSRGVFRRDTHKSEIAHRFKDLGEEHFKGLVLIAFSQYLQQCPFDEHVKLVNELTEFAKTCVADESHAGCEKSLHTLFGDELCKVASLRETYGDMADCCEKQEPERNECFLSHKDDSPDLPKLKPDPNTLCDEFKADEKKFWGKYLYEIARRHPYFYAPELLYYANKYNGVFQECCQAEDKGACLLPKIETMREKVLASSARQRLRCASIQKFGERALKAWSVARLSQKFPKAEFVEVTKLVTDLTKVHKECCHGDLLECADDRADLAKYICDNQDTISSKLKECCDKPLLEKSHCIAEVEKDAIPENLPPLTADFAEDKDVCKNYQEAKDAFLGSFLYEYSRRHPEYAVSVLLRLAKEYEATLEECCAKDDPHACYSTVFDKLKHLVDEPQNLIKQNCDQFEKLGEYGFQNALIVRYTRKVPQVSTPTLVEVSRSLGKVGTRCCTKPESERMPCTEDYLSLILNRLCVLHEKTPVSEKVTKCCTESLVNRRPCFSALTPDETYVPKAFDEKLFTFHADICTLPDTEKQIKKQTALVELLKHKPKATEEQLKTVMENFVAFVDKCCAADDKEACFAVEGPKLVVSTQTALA
Sequence of Glucose-6-phosphate 1-dehydrogenase (P11413 whole entry): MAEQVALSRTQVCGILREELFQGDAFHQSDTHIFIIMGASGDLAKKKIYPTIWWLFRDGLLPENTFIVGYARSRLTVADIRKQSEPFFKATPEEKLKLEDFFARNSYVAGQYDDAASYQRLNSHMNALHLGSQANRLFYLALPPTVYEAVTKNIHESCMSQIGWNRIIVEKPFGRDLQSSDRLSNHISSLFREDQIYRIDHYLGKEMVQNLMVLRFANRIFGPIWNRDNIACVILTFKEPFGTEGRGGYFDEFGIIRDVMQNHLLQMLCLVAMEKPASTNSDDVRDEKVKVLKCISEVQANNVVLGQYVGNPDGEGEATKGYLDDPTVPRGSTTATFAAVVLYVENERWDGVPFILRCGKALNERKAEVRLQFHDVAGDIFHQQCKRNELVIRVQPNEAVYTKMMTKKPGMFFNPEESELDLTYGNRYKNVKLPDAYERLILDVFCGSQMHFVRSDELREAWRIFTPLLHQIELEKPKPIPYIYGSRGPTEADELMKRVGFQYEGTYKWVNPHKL
Sequence of Transitional endoplasmic reticulum ATPase (Homo sapiens, UniProt P55072, C522A) (P55072 2-806 C522A limits assumed): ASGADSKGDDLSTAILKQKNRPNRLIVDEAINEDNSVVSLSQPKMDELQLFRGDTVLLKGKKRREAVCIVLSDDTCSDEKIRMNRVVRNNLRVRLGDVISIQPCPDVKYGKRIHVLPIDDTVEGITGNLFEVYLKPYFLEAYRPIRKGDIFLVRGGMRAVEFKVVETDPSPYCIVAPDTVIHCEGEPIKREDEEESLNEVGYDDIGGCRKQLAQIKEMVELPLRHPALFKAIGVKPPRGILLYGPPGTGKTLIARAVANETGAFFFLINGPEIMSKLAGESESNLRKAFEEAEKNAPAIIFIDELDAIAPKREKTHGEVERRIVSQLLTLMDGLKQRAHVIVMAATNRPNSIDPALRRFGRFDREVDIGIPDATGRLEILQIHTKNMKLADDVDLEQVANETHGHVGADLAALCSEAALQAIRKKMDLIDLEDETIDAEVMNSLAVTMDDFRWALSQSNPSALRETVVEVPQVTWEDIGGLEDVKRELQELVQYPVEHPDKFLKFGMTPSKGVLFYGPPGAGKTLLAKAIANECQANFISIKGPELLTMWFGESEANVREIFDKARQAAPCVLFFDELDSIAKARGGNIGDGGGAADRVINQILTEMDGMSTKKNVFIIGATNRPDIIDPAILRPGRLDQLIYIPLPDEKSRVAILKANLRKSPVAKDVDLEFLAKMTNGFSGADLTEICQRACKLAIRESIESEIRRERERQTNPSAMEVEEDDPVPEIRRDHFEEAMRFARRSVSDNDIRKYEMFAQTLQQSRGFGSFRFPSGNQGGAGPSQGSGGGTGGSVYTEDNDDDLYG
Sequence of Aspartyl aminopeptidase (Q8I2J3 whole entry): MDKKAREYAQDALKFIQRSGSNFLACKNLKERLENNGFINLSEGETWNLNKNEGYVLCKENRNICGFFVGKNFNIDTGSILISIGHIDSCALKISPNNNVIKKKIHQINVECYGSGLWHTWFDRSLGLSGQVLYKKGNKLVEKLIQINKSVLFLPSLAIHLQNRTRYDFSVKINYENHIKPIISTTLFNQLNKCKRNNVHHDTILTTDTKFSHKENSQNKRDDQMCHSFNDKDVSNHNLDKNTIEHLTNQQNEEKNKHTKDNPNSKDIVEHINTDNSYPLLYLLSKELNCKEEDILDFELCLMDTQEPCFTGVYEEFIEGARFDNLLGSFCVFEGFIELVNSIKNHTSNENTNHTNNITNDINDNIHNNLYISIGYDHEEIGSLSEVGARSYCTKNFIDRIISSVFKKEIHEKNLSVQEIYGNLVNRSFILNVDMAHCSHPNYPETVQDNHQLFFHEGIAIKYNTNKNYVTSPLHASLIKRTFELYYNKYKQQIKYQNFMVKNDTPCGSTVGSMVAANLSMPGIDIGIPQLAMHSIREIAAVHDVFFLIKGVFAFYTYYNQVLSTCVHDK
Sequence of Induced myeloid leukemia cell differentiation protein Mcl-1 (Q07820 whole entry): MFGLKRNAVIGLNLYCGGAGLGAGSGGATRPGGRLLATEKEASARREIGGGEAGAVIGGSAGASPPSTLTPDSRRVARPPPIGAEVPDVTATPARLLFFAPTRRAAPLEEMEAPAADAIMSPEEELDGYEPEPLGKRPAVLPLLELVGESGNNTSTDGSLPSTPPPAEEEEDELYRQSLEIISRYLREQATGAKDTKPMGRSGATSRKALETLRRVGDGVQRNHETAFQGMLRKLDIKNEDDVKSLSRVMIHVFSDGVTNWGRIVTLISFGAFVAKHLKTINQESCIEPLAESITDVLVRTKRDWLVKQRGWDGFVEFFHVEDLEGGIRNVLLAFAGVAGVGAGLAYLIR

## Cc1cc(-c2csc(Nc3ccc(C#N)cc3)n2)c(C)n1C
[1]
  IC50: > 50 µM (not active)
[2]
  IC50: > 50 µM (not active)

## CCCCOC(=O)Nc1ccc(C)c(Cl)c1
[3]
  IC50: > 100 µM (active)
Cytochrome P450 2C9
  AC50: 11.2 µM (inconclusive)

## CCN(CC)c1ccc(NC(=O)CSc2nnc(N)s2)cc1C
Leucine aminopeptidase
  IC50: 5.57 µM (active)
Procathepsin L
  IC50: > 59.6 µM (not active)
Aspartyl aminopeptidase
  IC50: > 73.5 µM (not active)
Large T antigen
  IC50: 14.8 µM (active)

## COc1cc2c(c(OC)c1OC)-c1ccc(OC)c(=O)cc1[C@@H](N(C)CC#CCO)CC2
[4]
  IC50: > 80 µM (inactive)
[5]
  EC50: 1.45 µM (inconclusive)
BJ [6]
  EC50: 0.616 µM (inconclusive)
BJ [7]
  EC50: 9.89 µM (active)
BJ [8]
  EC50: 16.7 µM (inconclusive)
[9]
  IC50: 0.226 µM (active)

## CC(=O)Nc1ccc(Nc2cc(C(C)C)nc3c(-c4ccccc4)c(C)nn23)cc1
[10]
  EC50: > 32 µM (inactive)
Vero
  CC50: > 100 µM (active)
[11]
  EC50: 10.4 µM (active)
[12]
  EC50: 0.211 µM (active)
[13]
  AC50: 3.84 µM (active)

## CCN(CC(=O)Nc1c(F)cccc1F)C(=O)/C=C/c1ccc2ccccc2n1
[14]
  IC50: > 66.6 µM (inactive)
Genome polyprotein [15]
  IC50: 16.7 µM (not active)
Albumin
  IC50: > 94.1 µM (inactive)
Genome polyprotein [16]
  IC50: 29.8 µM (inactive)
Bcl-2-like protein 1
  IC50: 25.3 µM (not active)
[17]
  IC50: 3.46 µM (active)
[18]
  IC50: 2.3 µM (active)

## CC(Cc1ccc(O)c(O)c1)C(C)Cc1ccc(O)c(O)c1 (stereo not given) [NORDIHYDROGUAIARETIC ACID]
[19]
  EC50: 26.1 µM (active)
[20]
  EC50: 2.32 µM (active)
14-3-3 protein gamma
  IC50: > 50 µM (not active)
[21]
  IC50: > 80 µM (inactive)
[22]
  EC50: 8.75 µM (active)
[23]
  EC50: 9.48 µM (active)
Estrogen receptor
  IC50: 22.2 µM (active)
[24]
  EC50: 11.2 µM (active)
Large T antigen
  IC50: 21.9 µM (active)
